Measured values from ChEMBL document CHEMBL3045920, “Antifeedant activity of some diterpenoids” (1999).

Experiments:
Assay type in all cases: functional
[1] = system: Henosepilachna vigintioctopunctata; assay: Antifeedant activity against adults of Henosepilachna vigintioctopunctata at 0.5 mg/cm'2 after 4 hr
[2] = system: Henosepilachna vigintioctopunctata; assay: Antifeedant activity against fourth-instar nymphs of Henosepilachna vigintioctopunctata at 0.05 mg/cm'2 after 4 hr
[3] = system: Henosepilachna vigintioctopunctata; assay: Antifeedant activity against adults of Henosepilachna vigintioctopunctata at 0.05 mg/cm'2 after 4 hr
[4] = system: Henosepilachna vigintioctopunctata; assay: Antifeedant activity against fourth-instar nymphs of Henosepilachna vigintioctopunctata at 0.5 mg/cm'2 after 4 hr
[5] = system: Henosepilachna vigintioctopunctata; assay: Antifeedant activity against adults of Henosepilachna vigintioctopunctata at 5 mg/cm'2 after 4 hr
[6] = system: Henosepilachna vigintioctopunctata; assay: Antifeedant activity against fourth-instar nymphs of Henosepilachna vigintioctopunctata at 5 mg/cm'2 after 4 hr

CC(=O)OC[C@@]12C=C[C@@H](C)[C@](C)([C@@H]3C[C@H]4C(OC(C)=O)CO[C@H]4O3)[C@H]1CC[C@H](OC(C)=O)[C@]21CO1 (stereo partly specified)
Activity [1]: 22.53% | Activity [2]: -18.69% | Activity [3]: -20.26% | Activity [4]: -1.39% | Activity [5]: 23.45% | Activity [6]: 1.28%

CC(=O)OC[C@@]12[C@@H](OC(C)=O)C[C@@H](C)[C@](C)([C@@H]3C[C@H]4C=CO[C@H]4O3)[C@H]1CC[C@H](OC(C)=O)[C@]21CO1 [3-EPICARYOPTIN]
Activity [1]: 37.02% | Activity [2]: 16.12% | Activity [3]: 31.07% | Activity [4]: 9.37% | Activity [5]: 31.93% | Activity [6]: 23.56%

CC(=O)OC[C@@]12[C@@H](OC(C)=O)C[C@@H](C)[C@](C)([C@@H]3C[C@@H]4CCO[C@H]4O3)[C@H]1CC[C@H](OC(C)=O)[C@]21CO1 [14,15-DIHYDRO-3-EPICARYOPTIN]
Activity [1]: 8.39% | Activity [2]: 21.14% | Activity [3]: 10.2% | Activity [4]: 20.39% | Activity [5]: 39.34% | Activity [6]: 39.2%

C=C1CC[C@@H]2[C@](C)(CO)[C@H](O)CC[C@@]2(C)[C@@H]1C/C=C1/C(=O)OC[C@H]1O [ANDROGRAPHOLIDE]
Activity [1]: 1.04% | Activity [2]: -16.76% | Activity [3]: -10.95% | Activity [4]: -52.38% | Activity [5]: 24.26% | Activity [6]: 54.06%

CC(=O)OC[C@@]12[C@@H](OC(C)=O)C[C@@H](C)[C@](C)([C@@H]3C[C@H]4C=CO[C@H]4O3)[C@H]1CC[C@@H](OC(C)=O)[C@]21CO1 [CARYOPTIN]
Activity [1]: -10.03% | Activity [2]: 34.37% | Activity [3]: -5.31% | Activity [4]: 72.51% | Activity [5]: 84.95% | Activity [6]: 44.46%

C[C@@]12CCCC(CO)(CO)[C@H]1CC[C@H](CO)[C@H]2CCC1=CCOC1=O [WIGHTIONOLIDE]
Activity [1]: 7.15% | Activity [2]: -52.79% | Activity [3]: 18.42% | Activity [4]: -14.03% | Activity [5]: -4.1% | Activity [6]: -11.72%
